In patent US20200377496A1, “INDOLE AND BENZIMIDAZOLE DERIVATIVES AS DUAL 5-HT2A and 5-HT6 RECEPTOR ANTAGONISTS” (ADAMED PHARMA, S.A., priority 2018, published 2020):
Read-outs that look alike come from different tables or passages of the source.

What was measured:
human 5-HT2A receptor = human 5-HT2A receptor (Homo sapiens, UniProt P28223); experiment: 5-HT2A receptor binding assay ([3H]-ketanserin radioligand)
Protocol: (§1) Preparation of Solutions of Test and Reference Compounds.
1 mM stock solutions of tested compounds were prepared in DMSO. Serial dilutions of compounds were prepared in 96-well microplate in assay buffers using automated pipetting system epMotion 5070 (Eppendorf). Each compound was tested in 10 concentrations from 1.0E-6 to 1.0E-11 M (final concentration).
5-HT2A Receptor Binding Assay.
Radioligand binding was performed using membranes from CHO K1 cells stably transfected with the human 5-HT2A receptor (PerkinElmer). All assays were carried out in duplicates. 50 μl working solution of the tested compounds, 50 μl [3H]-ketanserin (final concentration 1 nM) and 150 μl diluted membranes (7 μg protein per well) prepared in assay buffer (50 mM Tris, pH 7.4, 4 mM CaCl2, 0.1% ascorbic acid) were transferred to polypropylene 96-well microplate using 96-wells pipetting station Rainin Liquidator (MettlerToledo). Mianserin (10 μM) was used to define nonspecific binding. Microplate was covered with a sealing tape, mixed and incubated for 60 minutes at 27° C. The reaction was terminated by rapid filtration through GF/B filter mate presoaked with 0.5% polyethyleneimine for 30 minutes. Ten rapid washes with 200 μl 50 mM Tris buffer (4° C., pH 7.4) were performed using automated harvester system Harvester-96 MACH III FM (Tomtec). The filter mates were dried at 37° C. in forced air fan incubator and then solid scintilator MeltiLex was melted on filter mates at 90° C. for 5 minutes. Radioactivity was counted in MicroBeta2 scintillation counter (PerkinElmer). Data were fitted to a one-site curve-fitting equation with Prism 6 (GraphPad Software) and Ki values were estimated from the Cheng-Prusoff equation.

human GPCR 5-HT2A = human GPCR 5-HT2A (Homo sapiens, UniProt P28223); experiment: Cellular aequorin-based functional assay, 5-HT2A; assay type: cell-based; conditions: for 5-HT2A AGO EC50 [nM]: agonist mode, CHO-K1 aequorin cells
Protocol: as §1
1 mM stock solutions of the tested compounds were prepared in DMSO. Serial dilutions were prepared in 96-well microplate in assay buffers using automated pipetting system epMotion 5070 (Eppendorf). Two independent experiments in duplicates were performed and 6 to 10 concentrations were tested.
5-HT2A and 5-HT6 Functional Activity Assays.
Cellular aequorin-based functional assays were performed with γ-irradiated recombinant CHO-K1 cells expressing mitochondrially-targeted Aequorin, human GPCR (5-HT2A or 5-HT6) and the promiscuous G protein α16 (PerkinElemer). Assays were performed according to the standard protocol provided by the manufacturer. After thawing, cells were transferred to assay buffer (DMEM/HAM's F12 with 0.1% protease-free BSA) and centrifuged. Cell pellet was resuspended in assay buffer and coelenterazine h was added at final concentrations of 5 μM. Cell suspension was incubated at 21° C., protected from light with constant agitation, for 4 hours and then diluted with assay buffer to a concentration of 250,000 cells/ml. After 1 hour incubation 50 yl cell suspension was dispensed using automatic injectors built in radiometric and luminescence plate counter MicroBeta2 LumiJET (PerkinElmer, USA) into white opaque 96-well microplate preloaded with tested compounds. Immediate light emission generated following calcium mobilization was recorded for 30-60 seconds. In antagonist mode, after 15-30 minutes incubation reference agonist was added to the above assay mix and light emission was recorded again. Final concentration of reference agonist was equal EC80: serotonin 40 nM for 5-HT6 receptor and α-methylserotonin 30 nM for 5-HT2A receptor. The assays were performed in the agonist mode (5-HT6 AGO and 5-HT2A AGO) as well as antagonist mode (5-HT6 ANT and 5-HT2A ANT).
IC50 and EC50 were determined by non-linear regression analysis using GraphPad Prism 6.0 software. The log IC50 was used to obtain the Kb by applying the Cheng-Prusoff approximation.

[1] = test system: scopolamine-induced deficits in learning and memory; experiment: Scopolamine-induced deficits in step-through passive avoidance test in Wistar rats; assay type: in vivo; conditions: hydrochloride salt p.o. 180 min before training; scopolamine 0.3 mg/kg i.p.; male Wistar rats
Protocol: Biological Example 4. Effects of Compounds 1 and 17, on Scopolamine-Induced Deficits in Learning and Memory in the Passive Avoidance Test in Wistar Rats
Drug-naive male Wistar rats (Charles River, Sulzfeld, Germany) were used. Rats were housed four per standard plastic cage and kept in a room with constant environmental conditions (22±1° C., relative humidity 60%, a 12:12 light-dark cycle with lights on at 7:00 a.m.). Animals were supplied by the breeder 2-3 weeks before the onset of behavioral procedures. During this time, the subjects were weighted and handled several times. […]
Effects of tested compounds on learning and memory function were evaluated using a step-through passive avoidance test (Ishiyama et al., 2007). […]
In the training (acquisition) session, the animals were individually placed in the lighted compartment and allowed to explore it freely for 10 s. The sliding door was then opened, and the step-through latency for animals to enter the dark compartment was measured with a 300-s cut-off time. […]
The test (expression) session was performed 24 h after the training session using the same paradigm but without any foot-shock or drug injections. Step-through latencies for animals to enter the dark compartment were measured with a 300-s cut-off time. […]
Body weights (g) and training/test latencies (s) were analyzed with the aid of a one-way analysis of variance (ANOVA). […]

human GPCR 5-HT2A, sequence (P28223 whole entry): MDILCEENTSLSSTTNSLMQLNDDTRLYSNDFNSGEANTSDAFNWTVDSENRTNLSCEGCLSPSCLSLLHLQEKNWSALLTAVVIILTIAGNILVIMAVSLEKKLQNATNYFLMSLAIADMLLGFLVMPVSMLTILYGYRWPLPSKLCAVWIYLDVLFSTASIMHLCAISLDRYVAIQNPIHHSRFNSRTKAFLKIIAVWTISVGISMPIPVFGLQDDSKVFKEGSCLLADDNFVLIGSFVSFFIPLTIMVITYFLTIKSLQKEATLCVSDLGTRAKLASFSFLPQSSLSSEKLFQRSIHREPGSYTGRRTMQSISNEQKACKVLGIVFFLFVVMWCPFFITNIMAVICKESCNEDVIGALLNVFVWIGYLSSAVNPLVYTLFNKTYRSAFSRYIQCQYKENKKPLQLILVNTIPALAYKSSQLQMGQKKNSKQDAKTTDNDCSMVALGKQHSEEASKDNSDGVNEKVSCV
human 5-HT2A receptor, sequence (P28223 whole entry): as above

For `FC(F)(F)c1nc2c(N3CCNCC3)cccc2n1Cc1ccccc1` [Compound 1, 1-benzyl-4-(piperazin-1-yl)-2-(trifluoromethyl)-1H-benzimidazole], the Ki (human 5-HT2A receptor; membranes from CHO K1 cells with human 5-HT2A receptor, [3H]-ketanserin 1 nM, read-out: 5-HT2A Ki) was 4.2 nM, the “5-HT2A AGO EC50 [nM]” value (human GPCR 5-HT2A) was “N.C” and the Kb (human GPCR 5-HT2A; antagonist mode, reference agonist α-methylserotonin 30 nM (EC80), read-out: 5-HT2A ANT Kb) was 18 nM. For the same compound, the “minimal effective dose, elongation of step-through latencies in test session” value [1] was 3.0 mg/kg.

In the case of `FC(F)(F)c1cc2c(N3CCNCC3)cccc2n1Cc1ccco1` [Compound 17, 1-(furan-2-ylmethyl)-4-(piperazin-1-yl)-2-(trifluoromethyl)-1H-indole], the Ki (human 5-HT2A receptor) is reported as 1.6 nM, the Kb (human GPCR 5-HT2A) is reported as 10 nM and the “5-HT2A AGO EC50 [nM]” value (human GPCR 5-HT2A) is reported as “N.C”. For the same compound, the “minimal effective dose, elongation of step-through latencies in test session” value [1] was 1.0 mg/kg.
